The text below walks through data of US11491117B2, “Compounds for the prevention and treatment of glucose intolerance related conditions and obesity” (SORBONNE UNIVERSITÉ, priority 2017, dated 2022).

The test relates to C57BL/6J mice fed CHD or HFD. In words: Histology and immunohistochemistry of liver and pancreas of chronically treated mice. In kind it is in vivo, mouse. Particulars: for islet size (immunohistochemistry) / insulin positive area: mean±SEM. Here is the method: Tissues were drop-fixed in 4% paraformaldehyde (Sigma-Aldrich, Saint Quentin Fallavier, France) immediately after collection and put through an automated carousel processor for dehydration, clearing, and paraffin embedding (Leica, Nanterre, France). Sections were prepared for liver (6 μm), pancreas (6 μm) and adipose tissue ([…]) and mounted on slides (DPX polymerizing mountant, Sigma-Aldrich, Saint Quentin Fallavier, France). Hematoxylin and Eosin (H&E) was used to evaluate tissue morphology. Epitope-specific antibodies were used for immunohistochemistry detection of insulin on pancreas sections (Dako, Saint Aubin, France).
For Oil redO (ORO), livers were snap frozen in OCT (VWR, Fontenay-sous-Bois, France) and cut into 7-μm sections using a cryostat. Sections were rehydrated in PBS (Sigma-Aldrich, St Quentin, France) and incubated with an ORO staining solution (Sigma Aldrich, St Quentin, France). Slides were washed in deionized water and mounted with Vectashield mounting medium (Laboratoires Eurobio Abcys, LesUlis, France).
For immunohistochemistry analysis, pancreas sections were quenched with 3% H2O2, washed with TBS+0.1% (v/v) Tween-20 (or 0.05% v/v Triton X-100 for nuclear epitopes), blocked with TBS+3% (w/v) BSA and incubated with diluted primary antibodies and then with HRP-conjugated secondary antibody (Bio-Rad, Marnes-la-Coquette, France). Chromogenic detection was carried out with the DAB chromogen kit (Dako, Saint Aubin, France). Nuclei were counterstained with hematoxylin. Quantitative expression of all immunostainings was performed using positive pixels algorithm (Indica Labs, Corrales, N. Mex.). For double immunostaining and immunofluorescence analyses, pancreas sections were stained for insulin as described above and co-stained with i) primary Anti-Ki67 antibody (ab15580, Abcam, Paris, France) and secondary Donkey Anti-Goat IgG H&L conjugated to Alexa Fluor® 568 (ab175704, Abcam, Paris, France) ii) primary Mouse/Rat CD31/PECAM-1 Antibody (AF3628, Minneapolis, USA) and secondary Goat anti-Rabbit IgG H&L conjugated to Alexa Fluor 488 (A-11034, ThermoFisher, Villebon, France). Results are expressed as percentage of positive pixels, within islets where indicated. The quantification method is an automated observer-independent process based on section scanning and application of publicly available algorithms. Each biological replicate represents one slide per animal mounted with at least 3 tissue sections, representing 3 technical replicates, the mean and variance of which is presented as the result per biological replicate. All images were acquired on an Axiovert 200M microscope (Zeiss, Marly-le-Roi, France).

As for `Cc1ccc(O)cc1` [4-cresol], the “islet size (immunohistochemistry)” value reads like this: (CHD fed mice) 153.60±14.18; (HFD fed mice) 170.00±12.56. The “number of proliferative nuclei (KI67) in pancreas” value is listed as “significantly increased” (CHD-fed mice) and “remained elevated” (HFD-fed mice). Further, the “reduction in liver fat content (Oil-Red-O staining)” value (HFD fed mice, P=0.009, to the level of saline-treated CHD-fed controls) was found to be 40.7%. Moreover, where the note is “both groups fed CHD or HFD”, the “CD31 positive cells (pancreas vascularization)” value was “further significant increase”. Besides, for the setting “mice fed CHD”, the “liver fat content (Oil-Red-O staining)” value is on record as “reduced”. Moreover, the islet density result (mice fed CHD or HFD, significant only in CHD-fed mice) was “strong increase”. For the same compound, the insulin positive area was 185.40±22.95 (mice fed CHD, statistically significant) and 171.90±21.62 (mice fed HFD, not statistically significant).
